The target in series [1] is T1, recombinant MAO-B (Homo sapiens, UniProt P27338).
T1 construct: purchased Corning Life Sciences B.V
T1 sequence (P27338 1-520): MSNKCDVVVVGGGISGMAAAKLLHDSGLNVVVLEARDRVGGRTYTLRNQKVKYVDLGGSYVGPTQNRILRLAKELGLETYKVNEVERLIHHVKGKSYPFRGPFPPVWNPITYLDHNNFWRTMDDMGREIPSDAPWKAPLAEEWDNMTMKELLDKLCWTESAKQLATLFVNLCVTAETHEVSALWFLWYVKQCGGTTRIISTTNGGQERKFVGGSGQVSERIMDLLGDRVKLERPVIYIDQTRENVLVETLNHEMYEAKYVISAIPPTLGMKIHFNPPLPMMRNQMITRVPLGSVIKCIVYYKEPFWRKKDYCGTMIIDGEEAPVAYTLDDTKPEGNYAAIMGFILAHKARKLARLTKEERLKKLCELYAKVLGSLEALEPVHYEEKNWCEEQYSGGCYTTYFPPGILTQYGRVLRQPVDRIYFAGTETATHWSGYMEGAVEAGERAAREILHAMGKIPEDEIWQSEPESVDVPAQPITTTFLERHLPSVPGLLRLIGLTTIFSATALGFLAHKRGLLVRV
Briefly: Incubation with recombinant MAO-B enzymes. It counts as in vitro ADME. To be noted: 1,000 nM psilocin, rec. MAO-B. The procedure: Corning UltraPool human liver microsomes (HLM) 150 (20 mg/mL), human intestinal microsomes (HIM) pool (10 mg/mL) as well as recombinant human CYP enzymes (with P450 oxidoreductase, OR) including CYP1A2+OR (0.5 nmol), CYP2B6+OR (0.5 nmol), CYP2C8+OR (1.0 nmol), CYP2C9*1+OR (1 nmol), CYP2C19+OR (0.5 nmol), CYP2D6*1+OR (0.5 nmol), CYP2E1+OR + cytochrome b5 (1 nmol), CYP3A4+OR + cytochrome b5 (0.5 nmol), MAO-A (5 mg/mL), MAO-B (5 mg/mL), and UGT1A10 (5 mg/mL) were purchased from Corning Life Sciences B.V (Amsterdam, Netherlands). All microsomes and recombinant enzyme solutions were aliquoted and stored at −80 °C until further use.
The MAO inhibition assay was based on the assay described in section 2.5.1 and performed identically if not otherwise stated.

Series [2] addresses T2, human 5-HT2B receptor (Homo sapiens, UniProt P41595).
T2 construct: expressed in transfected cells; host or cells: NIH/3T3
Briefly: 5-HT activation potency (IP1 accumulation), 5-HT2B. It is filed as cell-based. To be noted: NIH/3T3 cells, read-out: h5-HT2B Activation potency EC50 ± SD. The procedure: NIH/3T3 cells stably expressing the human 5-HT1A, 5-HT2A, and 5-HT2B receptors were seeded at a density of 3,000 cells (5-HT1A and 5-HT2A) or 4,000 cells (5-HT2B) in 384-well plates using Opti-MEM medium from Gibco (ThermoFisher, Life Technologies, Zug, Switzerland). Subsequently, the test compounds were introduced, and the plates were incubated for 90 min at 37°C, followed by a 60 min incubation with Anti-IP1-Cryptate and IP1-d2 at room temperature. The formation of stimulated IP1 was quantified by homogeneous time-resolved fluorescence (HTRF) measurements using a BioTek Synergy H1 microplate reader (Agilent Technologies, Basel, Switzerland). The obtained raw data for receptor activation were subjected to normalization, wherein the baseline signal was set at 0%, and the maximum signal stimulated by 5-HT at the specific receptor was established as 100%.

Series [3] can be described thus: Pharmacokinetics and metabolites in mouse plasma after oral psilocybin. To be noted: for half-life / Cmax / Tmax: male, C57BL/6J, po, n = 5; for half-life: mouse, plasma, 3 mg/kg, read-out: elimination half-life t1/2 (mean ± SD) (converted); for Cmax: read-out: Cmax (mean ± SD); for Tmax: read-out: tmax (mean ± SD). It counts as in vivo, C57BL/6J mice. The procedure:
C57BL/6J adult male mice (Janvier, Le Genest-Saint-Isle, France) were maintained in littermate pairs in standard cages (containing sawdust, a sleeping chamber, tissue paper, and a wood stick) with water and pellet food available ad libitium. The colony room was on a reversed light-dark cycle (dark phase 07:00 to 19:00) with temperature at 22°C and humidity at 50–60%. A total of 10 mice were dosed orally with either 3 mg/kg bodyweight psilocybin (n = 5) or saline solution (n = 5). Dosing and blood sampling were conducted between 09:00 and 13:00. The mouse was placed in a plastic restrainer with the tail protruding through a hole in the end of the tube. The tail was immersed in warm water for 1 min for vasodilation and then a small incision was made on the lateral tail surface near the distal tip. 50 μL of blood was massaged gently into an EDTA-coated capillary blood tube (Mircovette, Sarstedt, Nümbrecht, Germany). The first (baseline) blood sample was collected directly before compound administration via oral gavage and the mouse was then returned to the home cage. Further blood samples were collected at 15, 30, 60, and 120 min post-treatment. Each sample was drawn from the same incision site, with mice maintained in the home cage in the intervening periods. The blood samples were stored on ice and centrifuged for 10 min at 780 × g and 4°C. Subsequently, the plasma was transferred into cryotubes (Protein LoBind, Eppendorf) and stored at −80 °C until analysis. All procedures were conducted under a permit for animal experimentation (ZH038/2022) issued by the Veterinary Office Zurich in accordance with the Animal Protection Act (1978) of Switzerland. The use of psilocybin was authorized by the Federal Office of Public Health (FOPH).
Pharmacokinetic parameters were calculated using Phoenix WinNonlin software (version 8.1.0, Certara, Princeton, USA). The elimination half-life (t1/2, min) was assessed as t1/2 = ln(2)/λ, while the elimination constant was calculated by linear regression in the terminal elimination phase. The maximal plasma concentration (Cmax, ng/mL) and the time to reach this concentration (tmax, h) were direct read-outs of the graphical plots.

In series [4] the target is T3, human 5-HT1A receptor (Homo sapiens, UniProt P08908).
T3 sequence (P08908 1-422): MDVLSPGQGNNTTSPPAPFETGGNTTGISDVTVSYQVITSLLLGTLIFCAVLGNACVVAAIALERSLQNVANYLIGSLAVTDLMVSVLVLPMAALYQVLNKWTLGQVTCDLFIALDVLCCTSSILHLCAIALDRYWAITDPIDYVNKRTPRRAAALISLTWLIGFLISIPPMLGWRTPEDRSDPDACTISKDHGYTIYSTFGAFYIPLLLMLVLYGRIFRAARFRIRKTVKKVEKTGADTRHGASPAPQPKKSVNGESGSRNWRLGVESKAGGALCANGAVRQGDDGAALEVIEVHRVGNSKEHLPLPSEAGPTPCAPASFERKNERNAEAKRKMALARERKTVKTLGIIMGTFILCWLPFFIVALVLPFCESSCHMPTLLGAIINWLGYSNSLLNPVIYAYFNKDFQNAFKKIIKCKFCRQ
Briefly: Radioligand receptor binding, 5-HT1A. The arrangement: expressed in transfected cells; host or cells: HEK 293 membrane preparations. The note with it: HEK 293 membranes, [3H]8-OH-DPAT.

[5] abbreviates: mouse plasma, 3 mg/kg psilocybin p.o.
Where [6] appears, read: read-out: h5-HT1A Receptor binding Ki ± SD.

Several values for one entry are separate records, joined by “and”; a condition that tells them apart may be missing. Identical values can stand only once. Like-named read-outs stand apart in the source and are kept apart here.

T2 sequence (P41595 whole entry): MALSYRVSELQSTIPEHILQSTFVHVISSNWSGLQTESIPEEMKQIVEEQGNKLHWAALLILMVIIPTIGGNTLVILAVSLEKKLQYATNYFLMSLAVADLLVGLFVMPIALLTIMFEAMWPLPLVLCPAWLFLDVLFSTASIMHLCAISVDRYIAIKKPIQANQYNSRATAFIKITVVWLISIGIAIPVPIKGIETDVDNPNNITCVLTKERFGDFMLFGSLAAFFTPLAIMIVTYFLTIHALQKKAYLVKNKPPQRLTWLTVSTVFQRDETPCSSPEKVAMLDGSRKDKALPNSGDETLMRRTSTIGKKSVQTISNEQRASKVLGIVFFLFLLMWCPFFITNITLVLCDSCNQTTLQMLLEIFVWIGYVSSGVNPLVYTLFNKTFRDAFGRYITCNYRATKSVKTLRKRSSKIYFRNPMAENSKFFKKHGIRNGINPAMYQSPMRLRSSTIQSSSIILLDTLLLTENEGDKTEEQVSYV

For the compound `O=C(O)Cc1c[nH]c2cccc(O)c12` [4-HIAA, 4-hydroxyindole-3-acetic acid], in series [1], the “formation of metabolite from psilocin” value is listed as “did not produce any”. Moreover, the 50% effective concentration (EC50) – broadly, the concentration that produces a half-maximal response – in series [2] was greater than 10 µM. Further, in series [3] (setting [5]), the half-life was 45 ± 6.6 min; the Cmax (usually the highest concentration seen after dosing) was determined as 84.9 ± 17.7 ng/mL; the time to peak (Tmax) (in general, the time from dosing to the highest level) amounted to 18 ± 6.6 min. Besides, in series [3] (mouse plasma), the “concentrations relative to psilocin (lower)” value is listed as 2 fold. In series [3] (mouse versus human), the “elimination half-life in mice relative to humans (shorter)” value is recorded as “more than 2 fold”. Moreover, the inhibition constant Ki (in general, a measure of affinity in units of concentration, obtained from inhibition or displacement) in series [4] (setting [6]) is greater than 10 µM.

Regarding `OCCc1c[nH]c2cccc(O)c12` [4-HTP, 4-hydroxytryptophol], in series [1], the “formation of metabolite from psilocin” value is recorded as “did not produce any”. The EC50 in series [2] is greater than 10 µM. Further, the “detection in mouse plasma” value in series [3] (3 mg/kg psilocybin p.o.) was “could not be observed”. Moreover, the inhibitory constant (Ki) in series [4] (setting [6]) is greater than 10 µM.

In the case of `CN(C)CCc1c[nH]c2cccc(O)c12` [psilocin, 4-hydroxy-N,N-dimethyltryptamine], in series [1], the “change of psilocin concentration” value was “did not visibly decrease”. Besides, in series [3] (setting [5]), the half-life is 54.6 ± 6.6 min, the peak concentration (Cmax) was determined as 198 ± 28 ng/mL and the Tmax was found to be 18 ± 6.6 min. In series [4] (h5-HT1A Receptor binding Ki ± SD), the Ki was < 0.136 µM and 0.128 µM.

The values above are taken from PMC11089204 (Frontiers in Pharmacology, 2024).
